Earlier results in patent US20180064146A1, “METHOD FOR THE SURFACE DECONTAMINATION OF PACKAGED SOLID FOOD” (priority 2015, published 2018).

Experiments:
Escherichia coli = conditions: for MICs (in liquid form): agar dilution, oil in liquid form; for MIDs (as vapour): oil as vapour
[1] = system: strains of Arcobacter butzleri; conditions: vapours; Arcobacter butzleri in cabbage leaf; to an undetectable level

SMILES	MICs (in liquid form) (Escherichia coli) [µg/mL]	MIDs (as vapour) (Escherichia coli) [μg/cm^2]	microbial load reduction [1] [log CFU/2 cm^2]
CC(C)=CCCC(C)=CC=O [Citral]	800	12.5	7
C=CC(C)(O)CCC=C(C)C (centres unmarked) [Linalool]	3200	50	7
C=C(C)[C@H]1CC=C(C)CC1 [Limonene]	3200	800	–
